Laboratory results from patent publication US9809578B2, “Pyrazolyl urea, thiourea, guanidine and cyanoguanidine compounds as trkA kinase inhibitors” (Array BioPharma Inc., priority 2012, dated 2017).

Target: T1, His-tagged recombinant human TrkA (Homo sapiens, UniProt P04629)
T1 construct: 6HIS tagged cytoplasmic domain from Invitrogen, Cat. No. PV3144; purchased Invitrogen PV3144
Assay: TrkA LanthaScreen Eu Kinase Binding Assay
Details: averaged IC50; LanthaScreen Eu kinase binding, TR-FRET; read-out: TrkA enzyme IC50
Procedure: TrkA binding activity was determined in a TrkA LanthaScreen™ Eu Kinase Binding Assay. […] Three fold serial dilutions of compounds of the invention in DMSO were added to a final percentage of 2% DMSO. […] The percent of control was calculated using a ratiometric emission factor. The IC50 values were determined by fitting a four parameter model to the percent of control data.

T1 sequence (P04629 440-796 limits assumed): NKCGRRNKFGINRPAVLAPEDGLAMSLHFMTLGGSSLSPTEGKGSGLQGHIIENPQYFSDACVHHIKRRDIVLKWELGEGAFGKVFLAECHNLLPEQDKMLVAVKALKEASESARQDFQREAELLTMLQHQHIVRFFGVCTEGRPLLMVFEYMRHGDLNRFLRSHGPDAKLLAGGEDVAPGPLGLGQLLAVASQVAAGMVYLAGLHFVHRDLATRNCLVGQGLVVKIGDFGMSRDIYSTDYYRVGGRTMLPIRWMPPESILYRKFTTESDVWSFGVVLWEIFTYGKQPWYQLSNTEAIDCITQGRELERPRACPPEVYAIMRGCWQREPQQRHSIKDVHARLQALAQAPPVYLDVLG

Row | SMILES | IC50
1 | Cc1c(-c2cnn(C)c2)nn(-c2ccccc2)c1NC(=O)Nc1cc(C2CC2)nn1-c1ccccc1 [Example 1, 1-(3-cyclopropyl-1-phenyl-1H-pyrazol-5-yl)-3-(1′,4-dimethyl-1-phenyl-1H,1′H-[3,4′-bipyrazol]-5-yl)urea] | < 100 nM
2 | Cc1cc(NC(=O)Nc2c(C)c(-c3cnn(C)c3)nn2-c2ccccc2)n(-c2ccccc2)n1 [Example 2, 1-(1′,4-dimethyl-1-phenyl-1H,1′H-[3,4′-bipyrazol]-5-yl)-3-(3-methyl-1-phenyl-1H-pyrazol-5-yl)urea] | 100 to 1000 nM
3 | Cc1c(-c2ccc(=O)n(C)c2)nn(-c2ccccc2)c1NC(=O)Nc1cc(C(F)(F)F)nn1-c1ccccc1 [Example 4, 1-(4-methyl-3-(1-methyl-6-oxo-1,6-dihydropyridin-3-yl)-1-phenyl-1H-pyrazol-5-yl)-3-(1-phenyl-3-(trifluoromethyl)-1H-pyrazol-5-yl)urea] | < 100 nM
4 | Cc1c(-c2ccn(C)c(=O)c2)nn(-c2ccccc2)c1NC(=O)Nc1cc(C(F)(F)F)nn1-c1ccccc1 [Example 5, 1-(4-methyl-3-(1-methyl-2-oxo-1,2-dihydropyridin-4-yl)-1-phenyl-1H-pyrazol-5-yl)-3-(1-phenyl-3-(trifluoromethyl)-1H-pyrazol-5-yl)urea] | < 100 nM
5 | Cc1c(-c2cnn(C)c2)nn(-c2ccccc2)c1NC(=O)Nc1c(C)c(C(F)(F)F)nn1-c1ccccc1 [Example 6, 1-(1′,4-dimethyl-1-phenyl-1H,1′H-[3,4′-bipyrazol]-5-yl)-3-(4-methyl-1-phenyl-3-(trifluoromethyl)-1H-pyrazol-5-yl)urea] | 100 to 1000 nM
6 | Cc1c(-c2cnn(C)c2)nn(-c2ccccc2)c1NC(=O)Nc1cc(C2CC2(F)F)nn1-c1ccccc1 (centres unmarked) [Example 7, 1-(3-(2,2-difluorocyclopropyl)-1-phenyl-1H-pyrazol-5-yl)-3-(1′,4-dimethyl-1-phenyl-1H,1′H-[3,4′-bipyrazol]-5-yl)urea] | < 100 nM
7 | Cc1c(-c2cnn(C)c2)nn(-c2ccccc2)c1NC(=O)Nc1cc(C(C)C)nn1-c1ccccc1 [Example 8, 1-(1′,4-dimethyl-1-phenyl-1H,1′H-[3,4′-bipyrazol]-5-yl)-3-(3-isopropyl-1-phenyl-1H-pyrazol-5-yl)urea] | 100 to 1000 nM
8 | Cc1c(-c2cnn(C)c2)nn(-c2ccccc2)c1NC(=O)Nc1cc(CC(F)(F)F)nn1-c1ccccc1 [Example 9, 1-(1′,4-dimethyl-1-phenyl-1H,1′H-[3,4′-bipyrazol]-5-yl)-3-(1-phenyl-3-(2,2,2-trifluoroethyl)-1H-pyrazol-5-yl)urea] | 100 to 1000 nM
9 | Cc1c(-c2cnn(C)c2)nn(-c2ccccc2)c1NC(=O)Nc1cc(CC(F)(F)F)nn1-c1ccc(F)cc1 [Example 10, 1-(1′,4-dimethyl-1-phenyl-1H,1′H-[3,4′-bipyrazol]-5-yl)-3-(1-(4-fluorophenyl)-3-(2,2,2-trifluoroethyl)-1H-pyrazol-5-yl)urea] | 100 to 1000 nM
10 | COc1ncc(-c2nn(-c3ccccc3)c(NC(=O)Nc3cc(C(F)(F)F)nn3-c3ccccc3)c2C)cn1 [Example 11, 1-(3-(2-methoxypyrimidin-5-yl)-4-methyl-1-phenyl-1H-pyrazol-5-yl)-3-(1-phenyl-3-(trifluoromethyl)-1H-pyrazol-5-yl)urea] | < 100 nM
11 | Cc1c(OCCO)nn(-c2ccccc2)c1NC(=O)Nc1cc(C(F)(F)F)nn1-c1ccccc1 [Example 12, 1-(3-(2-hydroxyethoxy)-4-methyl-1-phenyl-1H-pyrazol-5-yl)-3-(1-phenyl-3-(trifluoromethyl)-1H-pyrazol-5-yl)urea] | < 100 nM
